In patent publication US20210137117A1, “HERBICIDAL MIXTURES” (Bayer Aktiengesellschaft, priority 2017, published 2021):
Where “and” joins values, the source holds several entries; their conditions need not be identical. Equal entries are not always repeated.

How the values were obtained:
Experiment in all cases: Pre-emergence action against weeds (greenhouse)
Format in all cases: in vivo
[1] = tested on: LOLRI—resistant (Lolium rigidum); settings: for Herbicidal action LOLRI resistant: pre-emergence
Source text: (§1) Depending on the trial conditions, the soil of the standard field soil is sterile or not sterile.
(§2) The amount of water used for spray application was 300l/ha.
LOLRI—resistant (Lolium rigidum) resistant to herbicidally active compounds of the HRAC groups A and B; population mixture of field origin having increased metabolic resistance (IMR) and some target site resistance (TSR).
(§3) Insofar as herbicidal effects of the compositions according to the invention compared to mixtures of the prior art or compared to components applied individually against economically important mono- and dicotyledonous harmful plants were the centre of attention, the synergistic herbicidal activities were calculated using Colby's formula (cf. S. R. Colby; Weeds 15 (1967), 20-22): […]

[2] = tested on: ALOMY—sensitive (Alopecurus myosuroides); settings: for Herbicidal action ALOMY sensitive: pre-emergence
Source text: as §1, §2
ALOMY—sensitive (Alopecurus myosuroides) sensitive to customary herbicidally active compounds.
as §3

[3] = tested on: ALOMY—resistant (Alopecurus myosuroides); settings: for Herbicidal action ALOMY resistant: pre-emergence
Source text: as §1, §2
ALOMY—resistant (Alopecurus myosuroides) resistant to herbicidally active compounds of the HRAC groups A and B; population mixture of field origin having increased metabolic resistance (IMR) and some target site resistance (TSR).
as §3

CENCY (Centaurea cyanus) = settings: for Herbicidal action CENCY: pre-emergence
Source text: as §1, §2
CENCY (Centaurea cyanus)—Cornflower
as §3

PAPRH (Papaver rhoeas) = tested on: PAPRH (Papaver rhoeas)
Source text: as §1, §2
PAPRH (Papaver rhoeas)—Poppy, common
as §3

[4] = tested on: LOLRI—sensitive (Lolium rigidum); settings: for Herbicidal action LOLRI sensitive: pre-emergence
Source text: as §1, §2
LOLRI—sensitive (Lolium rigidum) sensitive to customary herbicidally active compounds.
as §3

BROST (Bromus sterilis) = settings: for Herbicidal action BROST: pre-emergence
Source text: as §1, §2
BROST (Bromus sterilis)—Bromegrass, barren
as §3

[5] = tested on: VERHE (Veronica hederaefolia); settings: for Herbicidal action VERHE: pre-emergence
Source text: as §1, §2
VERHE (Veronica hederaefolia)—Speedwell, iveleaf
as §3

AVEFA (Avenafatua) = settings: for Herbicidal action AVEFA: pre-emergence
Source text: as §1, §2
AVEFA (Avenafatua)—Wild oat
as §3

EMEAU (Emex australis) = settings: for Herbicidal action EMEAU: pre-emergence
Source text: as §1, §2
EMEAU (Emex australis)—Cathead
as §3

BRSNW (Brassica napus) = settings: for Herbicidal action BRSNW: pre-emergence
Source text: as §1, §2
BRSNW (Brassica napus)—Rape, winter
as §3

[6] = tested on: SORHA (Sorghum halepense); settings: for Herbicidal action SORHA: pre-emergence
Source text: as §1, §2
SORHA (Sorghum halepense)—Johnsongrass
as §3

[7] = tested on: TRZAS (Triticum aestivum); settings: for Herbicidal action (crop damage) TRZAS: pre-emergence
Source text: as §1, §2
TRZAS (Triticum aestivum)—Wheat, spring
as §3

HORVS (Hordeum vulgare) = settings: for Herbicidal action (crop damage) HORVS: pre-emergence
Source text: as §1, §2
HORVS (Hordeum vulgare)—Barley, spring
as §3

[8] = tested on: RAPRA (Raphanus raphanistrum); settings: for Herbicidal action RAPRA: pre-emergence
Source text: as §1, §2
RAPRA (Raphanus raphanistrum)—Charlock, jointed
as §3

Cc1ccccc1CO[C@@H]1C[C@@]2(C(C)C)CC[C@]1(C)O2 (racemic) [Cinmethylin, (+/−)-2-exo-(2-methylbenzyloxy)-1-methyl-4-isopropyl-7-oxabicyclo[2.2.1]heptane]
herbicidal action ([1]; 10 g AS/ha): 0%
herbicidal action ([1]; 25 g AS/ha): 70%
herbicidal action ([1]; 50 g AS/ha): 85% and 100%
herbicidal action ([1]; 100 g AS/ha): 100%
herbicidal action ([1]; 250 g AS/ha): 100%
herbicidal action ([1]; 500 g AS/ha): 100%
Herbicidal action LOLRI resistant ([1]; dose 50 g AS/ha): 100
herbicidal action ([2]; 10 g AS/ha): 0%
herbicidal action ([2]; 25 g AS/ha): 80%
herbicidal action ([2]; 50 g AS/ha): 80%
herbicidal action ([2]; 100 g AS/ha): 90%
herbicidal action ([2]; 250 g AS/ha): 100%
herbicidal action ([2]; 500 g AS/ha): 100%
Herbicidal action ALOMY sensitive ([2]; dose 50 g AS/ha): 80
herbicidal action ([3]; 10 g AS/ha): 0%
herbicidal action ([3]; 25 g AS/ha): 60%
herbicidal action ([3]; 50 g AS/ha): 70%
herbicidal action ([3]; 100 g AS/ha): 70%
herbicidal action ([3]; 250 g AS/ha): 90%
herbicidal action ([3]; 500 g AS/ha): 100%
Herbicidal action ALOMY resistant ([3]; dose 50 g AS/ha): 70
herbicidal action (CENCY (Centaurea cyanus); 50 g AS/ha): 0%
herbicidal action (CENCY (Centaurea cyanus); 100 g AS/ha): 0%
herbicidal action (CENCY (Centaurea cyanus); 250 g AS/ha): 30%
herbicidal action (CENCY (Centaurea cyanus); 500 g AS/ha): 80%
Herbicidal action CENCY (CENCY (Centaurea cyanus); dose 50 g AS/ha): 0
herbicidal action (PAPRH (Papaver rhoeas); 10 g AS/ha): 0%
herbicidal action (PAPRH (Papaver rhoeas); 25 g AS/ha): 0%
herbicidal action (PAPRH (Papaver rhoeas); 50 g AS/ha): 0%
herbicidal action ([4]; 10 g AS/ha): 0%
herbicidal action ([4]; 25 g AS/ha): 70%
herbicidal action ([4]; 50 g AS/ha): 90%
herbicidal action ([4]; 100 g AS/ha): 100%
herbicidal action ([4]; 250 g AS/ha): 100%
herbicidal action ([4]; 500 g AS/ha): 100%
Herbicidal action LOLRI sensitive ([4]; dose 50 g AS/ha): 90
herbicidal action (BROST (Bromus sterilis); 10 g AS/ha): 0%
herbicidal action (BROST (Bromus sterilis); 25 g AS/ha): 20%
herbicidal action (BROST (Bromus sterilis); 50 g AS/ha): 50%
herbicidal action (BROST (Bromus sterilis); 100 g AS/ha): 100%
herbicidal action (BROST (Bromus sterilis); 250 g AS/ha): 100%
herbicidal action (BROST (Bromus sterilis); 500 g AS/ha): 100%
Herbicidal action BROST (BROST (Bromus sterilis); dose 50 g AS/ha): 50
herbicidal action ([5]; 10 g AS/ha): 0%
herbicidal action ([5]; 25 g AS/ha): 0%
herbicidal action ([5]; 50 g AS/ha): 0%
herbicidal action ([5]; 100 g AS/ha): 0%
herbicidal action ([5]; 250 g AS/ha): 0%
herbicidal action ([5]; 500 g AS/ha): 0%
Herbicidal action VERHE ([5]; dose 50 g AS/ha): 0
herbicidal action (AVEFA (Avenafatua); 10 g AS/ha): 0%
herbicidal action (AVEFA (Avenafatua); 25 g AS/ha): 0%
herbicidal action (AVEFA (Avenafatua); 50 g AS/ha): 0%
herbicidal action (AVEFA (Avenafatua); 100 g AS/ha): 25%
herbicidal action (AVEFA (Avenafatua); 250 g AS/ha): 50%
herbicidal action (AVEFA (Avenafatua); 500 g AS/ha): 70%
Herbicidal action AVEFA (AVEFA (Avenafatua); dose 50 g AS/ha): 0
herbicidal action (EMEAU (Emex australis); 10 g AS/ha): 0%
herbicidal action (EMEAU (Emex australis); 25 g AS/ha): 0%
herbicidal action (EMEAU (Emex australis); 50 g AS/ha): 0%
herbicidal action (EMEAU (Emex australis); 100 g AS/ha): 0%
herbicidal action (EMEAU (Emex australis); 250 g AS/ha): 0%
herbicidal action (EMEAU (Emex australis); 500 g AS/ha): 0%
Herbicidal action EMEAU (EMEAU (Emex australis); dose 50 g AS/ha): 0
herbicidal action (BRSNW (Brassica napus); 10 g AS/ha): 0%
herbicidal action (BRSNW (Brassica napus); 25 g AS/ha): 0%
herbicidal action (BRSNW (Brassica napus); 50 g AS/ha): 0%
herbicidal action (BRSNW (Brassica napus); 100 g AS/ha): 0%
herbicidal action (BRSNW (Brassica napus); 250 g AS/ha): 0%
herbicidal action (BRSNW (Brassica napus); 500 g AS/ha): 10%
Herbicidal action BRSNW (BRSNW (Brassica napus); dose 50 g AS/ha): 0
herbicidal action ([6]; 50 g AS/ha): 65%
herbicidal action ([6]; 100 g AS/ha): 70%
herbicidal action ([6]; 250 g AS/ha): 80%
herbicidal action ([6]; 500 g AS/ha): 100%
Herbicidal action SORHA ([6]; dose 50 g AS/ha): 65
herbicidal action ([7]; 10 g AS/ha): 0%
herbicidal action ([7]; 25 g AS/ha): 0%
herbicidal action ([7]; 50 g AS/ha): 30%
herbicidal action ([7]; 100 g AS/ha): 40%
herbicidal action ([7]; 250 g AS/ha): 75%
herbicidal action ([7]; 500 g AS/ha): 90%
Herbicidal action (crop damage) TRZAS ([7]; dose 50 g AS/ha): 30
herbicidal action (HORVS (Hordeum vulgare); 10 g AS/ha): 0%
herbicidal action (HORVS (Hordeum vulgare); 25 g AS/ha): 0%
herbicidal action (HORVS (Hordeum vulgare); 50 g AS/ha): 30%
herbicidal action (HORVS (Hordeum vulgare); 100 g AS/ha): 40%
herbicidal action (HORVS (Hordeum vulgare); 250 g AS/ha): 65%
herbicidal action (HORVS (Hordeum vulgare); 500 g AS/ha): 70%
Herbicidal action (crop damage) HORVS (HORVS (Hordeum vulgare); dose 50 g AS/ha): 30
herbicidal action ([8]; 10 g AS/ha): 0%
herbicidal action ([8]; 25 g AS/ha): 0%
herbicidal action ([8]; 50 g AS/ha): 0%
herbicidal action ([8]; 100 g AS/ha): 0%
herbicidal action ([8]; 250 g AS/ha): 30%
herbicidal action ([8]; 500 g AS/ha): 40%
Herbicidal action RAPRA ([8]; dose 50 g AS/ha): 0

CCOC(=O)C1=NN(c2ccc(Cl)cc2Cl)C(C)(C(=O)OCC)C1 (stereo not shown) [Mefenpyr, ethyl 1-(2,4-dichlorophenyl)-5-(ethoxycarbonyl)-5-methyl-2-pyrazoline-3-carboxylate]
herbicidal action ([1]; 300 g AS/ha): 0%
Herbicidal action LOLRI resistant ([1]; dose 10 g AS/ha): 0
Herbicidal action LOLRI resistant ([1]; dose 100 g AS/ha): 0
herbicidal action ([2]; 300 g AS/ha): 0%
Herbicidal action ALOMY sensitive ([2]; dose 10 g AS/ha): 0
Herbicidal action ALOMY sensitive ([2]; dose 100 g AS/ha): 0
herbicidal action ([3]; 300 g AS/ha): 0%
Herbicidal action ALOMY resistant ([3]; dose 10 g AS/ha): 0
Herbicidal action ALOMY resistant ([3]; dose 100 g AS/ha): 0
herbicidal action (CENCY (Centaurea cyanus); 300 g AS/ha): 0%
Herbicidal action CENCY (CENCY (Centaurea cyanus); dose 10 g AS/ha): 0
Herbicidal action CENCY (CENCY (Centaurea cyanus); dose 100 g AS/ha): 0
herbicidal action ([4]; 300 g AS/ha): 0%
Herbicidal action LOLRI sensitive ([4]; dose 10 g AS/ha): 0
Herbicidal action LOLRI sensitive ([4]; dose 100 g AS/ha): 0
herbicidal action (BROST (Bromus sterilis); 300 g AS/ha): 0%
Herbicidal action BROST (BROST (Bromus sterilis); dose 10 g AS/ha): 0
Herbicidal action BROST (BROST (Bromus sterilis); dose 100 g AS/ha): 0
herbicidal action ([5]; 300 g AS/ha): 0%
Herbicidal action VERHE ([5]; dose 10 g AS/ha): 0
Herbicidal action VERHE ([5]; dose 100 g AS/ha): 0
herbicidal action (AVEFA (Avenafatua); 300 g AS/ha): 0%
Herbicidal action AVEFA (AVEFA (Avenafatua); dose 10 g AS/ha): 0
Herbicidal action AVEFA (AVEFA (Avenafatua); dose 100 g AS/ha): 0
herbicidal action (EMEAU (Emex australis); 300 g AS/ha): 0%
Herbicidal action EMEAU (EMEAU (Emex australis); dose 10 g AS/ha): 0
Herbicidal action EMEAU (EMEAU (Emex australis); dose 100 g AS/ha): 0
herbicidal action (BRSNW (Brassica napus); 300 g AS/ha): 0%
Herbicidal action BRSNW (BRSNW (Brassica napus); dose 10 g AS/ha): 0
Herbicidal action BRSNW (BRSNW (Brassica napus); dose 100 g AS/ha): 0
herbicidal action ([6]; 300 g AS/ha): 0%
Herbicidal action SORHA ([6]; dose 10 g AS/ha): 0
Herbicidal action SORHA ([6]; dose 100 g AS/ha): 0
herbicidal action ([7]; 300 g AS/ha): 0%
Herbicidal action (crop damage) TRZAS ([7]; dose 10 g AS/ha): 0
Herbicidal action (crop damage) TRZAS ([7]; dose 100 g AS/ha): 0
herbicidal action (HORVS (Hordeum vulgare); 300 g AS/ha): 0%
Herbicidal action (crop damage) HORVS (HORVS (Hordeum vulgare); dose 10 g AS/ha): 0
Herbicidal action (crop damage) HORVS (HORVS (Hordeum vulgare); dose 100 g AS/ha): 0
herbicidal action ([8]; 300 g AS/ha): 0%
Herbicidal action RAPRA ([8]; dose 10 g AS/ha): 0
Herbicidal action RAPRA ([8]; dose 100 g AS/ha): 0
